Measured values reported in patent publication US10383873B2, “Method and kits for identifying of CDK9 inhibitors for the treatment of cancer” (Memorial Sloan-Kettering Cancer Center, priority 2014, dated 2019).

Tests used:
human HCC cell lines [1] = experiment: Cell cycle analysis (BrdU/7-AAD staining) after 48 hours of treatment; format: cell-based; conditions: PHA-767491 treatment
Experimental: (FIG. 3E) Representative flow cytometry plots showing cell cycle analysis (BrdU+7-AAD+ double staining) of cells after 48 hours of PHA-767491 treatment.

[2] = tested on: non-transformed cell lines; experiment: Proliferation assay in non-transformed cell lines; format: cell-based; conditions: two non-transformed cell lines, compared with cancer cell lines
Experimental: Dead cells were excluded using propidium iodide (PI) staining to score cells with sub-2N DNA content. Measurements of cell concentration were performed on a Guava Easycyte (Millipore), gating only viable cells (FSC/SSC/PI-). Proliferation rates were calculated by dividing cell concentration at 72 h and cell concentration at 0 h, divided by 72. Relative proliferation rates were calculated by normalizing to the rate of vehicle-treated cells. Population doublings were calculated by calculating log 2 (cells at end point/cells at initial point) divided by time in days.

[3] = tested on: human and murine cell lines; experiment: Comparison of inhibitor IC50 with anti-proliferative effects of CDK9 shRNAs; format: cell-based; conditions: IC50 compared with competitive proliferation assays
Description: (FIG. 3A) Scatter plot illustrating the correlation between anti-proliferative effects of CDK9 shRNAs and the IC50 of PHA-767491 in six human cell lines. The correlation and p values of three additional CDK9 inhibitors and one DNA replication inhibitor (aphidicolin) are also shown in the right panel. The survival is defined as the average of the survival ratio of two shRNAs in competitive proliferation assay. (FIG. 3B) Proliferation rates of PHA-767491-treated human cells, calculated by measuring the change in viable cell number after 72 h in culture and fitting data to an exponential growth curve. Results were normalized to the proliferation rate of vehicle (H2O) treated cells, set to 1. Values are mean+/−SD of three independent replicates. (FIG. 3C) Summary of PHA-767491 IC50 values of human cell lines in FIG. 3A. […]
Competitive proliferation assays using shRNAs in TRMPV-Neo vector (with miR-30 or miR-E backbone) were performed as described previously (Zuber J, et al. Nature (2011) 478: 524-528). […] Proliferation rates were calculated by dividing cell concentration at 72 h and cell concentration at 0 h, divided by 72. Relative proliferation rates were calculated by normalizing to the rate of vehicle-treated cells. Population doublings were calculated by calculating log 2 (cells at end point/cells at initial point) divided by time in days. […]

[4] = tested on: MYC-overexpressing Alexander cells; experiment: Proliferation assay in Alexander cells with enforced MYC expression; format: cell-based, human; conditions: ectopic MYC expression versus empty vector
SNU-475 cells = experiment: Proliferation assay in SNU-475 cells with enforced MYC expression; format: cell-based, human; conditions: MYC levels equivalent to HepG2
Ser2 of RNA pol II = experiment: Immunoblot of Pol II Ser2 phosphorylation in tumors; format: in vivo, mice
Description: Mice were maintained under specific pathogen-free conditions, and food and water were provided ad libitum. […] One million murine or human HCC cells were ortothopically transplantated into female nude recipient mice (NCR nu/nu, purchased from Charles River laboratories and Harlan Laboratories), as described previously (Saborowski et al. 2013 Proc Natl Acad Sci USA. 2013 Nov. 26; 110(48):19513-8. doi: 10.1073/pnas.1311707110.). […] For PHA-767491 treatment trials, PHA-767491 was solved in ultrapure distilled water, filtered by 0.2 M filters, and diluted to a final concentration of 5 mg/ml. Mice were orally given twice daily PHA-767491 (50 mg/kg) or a similar volume of vehicle (water). The sick animals were sacrificed and liver tumors were used for further analysis. Liver tumors were excised, formalin-fixed and paraffin-embedded, frozen, or embedded in OCT.
Liver tissues and cell pellets were lysed in Laemmli buffer or protein lysis buffer (200 mM NaCl, 0.2% NP40, 50 mM Tris at pH 7.5, 1% Tween20, protease and phosphatases inhibitors) using a tissue homogenizer. Equal amounts of protein were separated on 12% SDS-polyacrylamide gels and transferred to PVDF membranes. […] Images were analyzed using the AlphaView software (ProteinSimple). Detection in immunoblots was performed using antibodies for CDK9 (Santa Cruz Biotechnology), MCM6 (Santa Cruz Biotechnology), PSMB2 (Santa Cruz Biotechnology), β-Actin (AC-15, Sigma), p53 (Leica Biosystems), MYC (Abcam), CCNT1 (Santa Cruz Biotechnology), phopho-Ser2 RNA Pol II (Cell Signaling), and RNA Pol II (Santa Cruz Biotechnology).

HepG2 cells = experiment: Orthotopic HepG2 HCC xenograft, bioluminescent imaging and Ki67; format: in vivo, mice; conditions: high MYC expressing HepG2; 50 mg/kg twice a day
Experimental: (§1) All mouse experiments were approved by the Memorial Sloan-Kettering Cancer Center (MSKCC) Animal Care and Use Committee (protocol no. 11-06-011). Mice were maintained under specific pathogen-free conditions, and food and water were provided ad libitum. For conditional RNAi experiments in vivo, Tet-on murine HCC MP1 cells were transduced with luciferase-hygro and TRMPV-Neo-miR-E shRNA constructs. […] For whole-body bioluminescent imaging, mice were intraperitoneally injected with 50 mg/kg D-Luciferin (Goldbio), and after 10 min, analysed using an IVIS Spectrum system (Caliper LifeSciences). Quantification was performed using Living Image software (Caliper LifeSciences) with standardized round regions of interests covering the mouse trunk and extremities. […]
(§2) Liver tissues and cell pellets were lysed in Laemmli buffer or protein lysis buffer (200 mM NaCl, 0.2% NP40, 50 mM Tris at pH 7.5, 1% Tween20, protease and phosphatases inhibitors) using a tissue homogenizer. […] The abundance of β-actin was monitored to ensure equal loading. Images were analyzed using the AlphaView software (ProteinSimple). […]

Alexander cells = experiment: Orthotopic Alexander HCC xenograft, bioluminescent imaging and Ki67; format: in vivo, mice; conditions: low MYC expressing Alexander; same treatment
Experimental: as §1, §2

human HCC cell lines [5] = conditions: previous findings; cited from earlier work
CDK9 = CDK9 (Homo sapiens, UniProt P50750); conditions: versus other available inhibitors
Sequence of CDK9 (P50750 whole entry, species assumed): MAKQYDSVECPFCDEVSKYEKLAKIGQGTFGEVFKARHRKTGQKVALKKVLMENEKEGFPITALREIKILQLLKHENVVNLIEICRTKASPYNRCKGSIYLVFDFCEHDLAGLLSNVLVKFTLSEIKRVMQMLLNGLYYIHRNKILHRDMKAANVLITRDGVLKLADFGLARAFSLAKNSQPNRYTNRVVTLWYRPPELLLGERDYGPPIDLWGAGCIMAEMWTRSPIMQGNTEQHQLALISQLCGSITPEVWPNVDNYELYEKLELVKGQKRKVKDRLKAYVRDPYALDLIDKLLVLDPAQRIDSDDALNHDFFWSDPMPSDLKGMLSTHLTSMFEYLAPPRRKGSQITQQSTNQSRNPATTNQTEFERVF
Sequence of CDK9 (O60563 whole entry partner, species assumed): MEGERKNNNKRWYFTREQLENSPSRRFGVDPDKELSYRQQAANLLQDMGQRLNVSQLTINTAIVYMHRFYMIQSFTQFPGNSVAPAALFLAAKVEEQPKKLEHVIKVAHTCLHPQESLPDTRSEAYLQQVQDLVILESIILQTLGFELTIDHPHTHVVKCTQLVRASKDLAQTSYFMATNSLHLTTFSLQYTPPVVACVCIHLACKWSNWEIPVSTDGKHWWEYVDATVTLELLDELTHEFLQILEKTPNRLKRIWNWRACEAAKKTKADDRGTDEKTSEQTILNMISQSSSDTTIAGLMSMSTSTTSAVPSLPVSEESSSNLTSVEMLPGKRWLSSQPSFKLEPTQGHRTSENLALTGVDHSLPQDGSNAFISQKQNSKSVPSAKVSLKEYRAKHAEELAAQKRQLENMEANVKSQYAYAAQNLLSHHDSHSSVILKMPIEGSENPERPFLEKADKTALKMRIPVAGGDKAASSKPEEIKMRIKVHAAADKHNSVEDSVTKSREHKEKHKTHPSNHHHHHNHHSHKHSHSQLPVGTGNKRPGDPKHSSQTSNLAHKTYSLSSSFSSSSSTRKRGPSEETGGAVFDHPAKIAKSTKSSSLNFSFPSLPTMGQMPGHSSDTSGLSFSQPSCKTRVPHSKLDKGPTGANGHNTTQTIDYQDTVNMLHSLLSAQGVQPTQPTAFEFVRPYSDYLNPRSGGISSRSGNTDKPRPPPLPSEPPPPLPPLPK

O=C1NCCc2[nH]c(-c3ccncc3)cc21 [PHA-767491]
cell cycle effect (human HCC cell lines [1]): triggered cell-cycle arrest
sensitivity to treatment [2]: consistently less sensitive
similarity of activity spectrum to CDK9 shRNAs [3]: most closely recapitulated shRNA-mediated CDK9 inhibition
sensitivity to CDK9 inhibition [4]: became more sensitive
sensitivity compared with HepG2 cells (SNU-475 cells): produced a similar sensitivity
Pol II Ser2 phosphorylation in tumors (Ser2 of RNA pol II; human HCC xenografts, 50 mg/kg twice a day, 50 mg/kg): decrease in the levels of phosphorylation of Ser2 of RNA pol II
Pol II Ser2 phosphorylation in Alexander tumors (Ser2 of RNA pol II; low MYC expressing Alexander xenografts): detectable decrease in Pol II Ser2 phosphorylation
total RNA pol II levels in tumors (Ser2 of RNA pol II; two representative tumors): mild changes in total RNA pol II levels
tumor growth (HepG2 cells): substantial inhibition of tumor growth and some tumor regressions
tumor-cell proliferation (HepG2 cells): decreased tumor-cell proliferation
effect on tumor-cell proliferation and tumor growth (Alexander cells): little if any effect
p53 dependence of proliferation inhibition (human HCC cell lines [5]): inhibits cancer cell proliferation through p53-independent mechanisms
selectivity for CDK9 (CDK9): more selective for CDK9 than other available inhibitors

C[C@@]1(CO)[C@H](O)CC[C@@]2(C)[C@H]1CC[C@H]1C[C@@H]3C[C@@]12CC[C@]3(O)CO [aphidicolin]
similarity of activity spectrum to CDK9 shRNAs [3]: did not mimic the effects of CDK9 shRNAs
